Laboratory results taken from ChEMBL document CHEMBL1201862, “PubChem BioAssay data set” (2004).
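Dose response: 5 concentrations. Exposure: 48 h. Format: 96-well plates. Endpoint: linear interpolation; highest concentration if not reached. GI50 is the concentration that inhibits growth by half.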 Activity calls are given as the source filed them. Rule as the data show it: active = GI50 up to about 1.1 µM and inactive = higher.

Assays:
Test in all cases: NCI tumour cell line growth inhibition, 48 h
RXF 393 = test system: RXF 393
SK-MEL-28 = test system: SK-MEL-28
EKVX = test system: EKVX
SF-268 = test system: SF-268
SR = test system: SR
UO-31 = test system: UO-31
OVCAR-5 = test system: OVCAR-5
NCI-H460 = test system: NCI-H460
UACC-62 = test system: UACC-62
786-0 = test system: 786-0
A549 = test system: A549
OVCAR-3 = test system: OVCAR-3
SNB-75 = test system: SNB-75
K562 = test system: K562
HL-60 = test system: HL-60
CCRF-CEM = test system: CCRF-CEM

Measured: GI50

O=C1C(Cl)=C(Cl)C(=O)N1c1ccccc1Cl
inactive: RXF 393 50.2 µM | SK-MEL-28 > 100 µM | EKVX > 100 µM | SF-268 > 100 µM | SR 14.7 µM | UO-31 > 100 µM | OVCAR-5 > 100 µM | NCI-H460 > 100 µM | UACC-62 > 100 µM | 786-0 > 79.3 µM | A549 > 100 µM | OVCAR-3 99.3 µM | SNB-75 > 100 µM | K562 28.9 µM | HL-60 15.3 µM | CCRF-CEM 11.9 µM

O=C1C=C/C(=N\c2ccc3c(c2)C(Br)c2ccccc2-3)O1 (configuration not stated)
inactive: RXF 393 > 100 µM | SK-MEL-28 > 100 µM | EKVX 52 µM | SF-268 > 100 µM | SR 20.2 µM | UO-31 > 100 µM | NCI-H460 > 100 µM | UACC-62 61.5 µM | 786-0 29 µM | A549 > 100 µM | OVCAR-3 > 100 µM | SNB-75 > 100 µM | K562 42.8 µM | HL-60 10.2 µM | CCRF-CEM 26.8 µM

CN1CCOC(C(NC(=O)c2ccccc2)c2ccccc2)C1=O (configuration not stated)
inactive: RXF 393 > 100 µM | SK-MEL-28 > 100 µM | EKVX > 100 µM | SF-268 > 100 µM | SR > 100 µM | UO-31 > 100 µM | OVCAR-5 > 100 µM | NCI-H460 > 100 µM | UACC-62 > 100 µM | 786-0 > 100 µM | A549 > 100 µM | OVCAR-3 > 100 µM | SNB-75 24.3 µM | K562 > 100 µM | HL-60 > 100 µM | CCRF-CEM > 100 µM

CN(C)CC1CCCC(CN(C)C)C1OC(=O)c1ccccc1 (configuration not stated)
inactive: RXF 393 > 100 µM | SK-MEL-28 > 100 µM | EKVX > 100 µM | SF-268 > 100 µM | SR > 100 µM | UO-31 > 100 µM | OVCAR-5 > 100 µM | NCI-H460 > 100 µM | UACC-62 > 100 µM | 786-0 > 100 µM | A549 > 100 µM | OVCAR-3 > 100 µM | SNB-75 > 100 µM | K562 > 100 µM | HL-60 > 100 µM | CCRF-CEM > 100 µM

O=C(C[n+]1ccccc1)NNC(=O)/C(=C/c1ccc2c(c1)OCO2)NC(=O)c1ccccc1
inactive: RXF 393 41.7 µM | SK-MEL-28 > 100 µM | EKVX > 100 µM | SF-268 49.1 µM | SR 18.2 µM | UO-31 > 70.8 µM | OVCAR-5 > 100 µM | NCI-H460 > 57.7 µM | UACC-62 > 67.9 µM | 786-0 51.4 µM | A549 > 76.4 µM | OVCAR-3 29.9 µM | SNB-75 36.7 µM | K562 > 77.4 µM | HL-60 25.2 µM | CCRF-CEM 25.9 µM

COc1cc2c(cc1OC)C1(c3ccc(Cl)cc3)ON=C(c3ccccc3)N1CS2 (configuration not stated)
inactive: RXF 393 21.2 µM | SK-MEL-28 > 100 µM | EKVX > 100 µM | SF-268 > 100 µM | SR 7.05 µM | UO-31 27.1 µM | OVCAR-5 > 100 µM | NCI-H460 92 µM | UACC-62 36 µM | 786-0 > 100 µM | A549 > 100 µM | OVCAR-3 > 100 µM | SNB-75 > 100 µM | K562 75.3 µM | HL-60 24.2 µM | CCRF-CEM 41 µM

Cc1nnc(N/N=C2\C(=O)Nc3ccccc32)n1N
inactive: RXF 393 > 100 µM | SK-MEL-28 > 100 µM | EKVX > 100 µM | SF-268 > 100 µM | SR > 100 µM | UO-31 > 100 µM | OVCAR-5 > 100 µM | NCI-H460 > 100 µM | UACC-62 > 100 µM | 786-0 > 100 µM | A549 > 100 µM | OVCAR-3 > 100 µM | SNB-75 > 100 µM | K562 29.6 µM | HL-60 25.9 µM | CCRF-CEM > 100 µM

CN1C(c2ccccc2)CC(=NO)CC1c1ccccc1 (configuration not stated)
inactive: RXF 393 62.5 µM | SK-MEL-28 91.2 µM | EKVX > 100 µM | SF-268 55.7 µM | SR 26.9 µM | UO-31 26.4 µM | OVCAR-5 67.3 µM | NCI-H460 60 µM | UACC-62 39.8 µM | 786-0 97.9 µM | A549 40.9 µM | OVCAR-3 39.9 µM | SNB-75 59.7 µM | K562 29.4 µM | HL-60 16.4 µM | CCRF-CEM 28.2 µM

O=c1oc2cc(O)ccc2c2[nH]c3cc(O)ccc3c12
inactive: RXF 393 20.6 µM | SK-MEL-28 31.7 µM | EKVX 26.5 µM | SF-268 22.8 µM | SR 21.2 µM | UO-31 26.2 µM | NCI-H460 33 µM | UACC-62 15.5 µM | 786-0 30.8 µM | A549 42.7 µM | OVCAR-3 20.7 µM | SNB-75 16.3 µM | K562 45.9 µM | HL-60 21.8 µM | CCRF-CEM 30.8 µM
